Consider three molecules from US8314150B2, “Kinase protein binding inhibitors” (priority 2008, dated 2012).

The test system of one experiment is Y397-FAK phosphorylation. Particulars: cited from earlier work.
In the next experiment the test system is cell growth and survival. Particulars: cited from earlier work.
Experiment [1] relates to BT474 cells. The experiment is described as follows: Detachment assay, BT474. Type of experiment: cell-based. Particulars: 24 hours. On the procedure:
Cell Viability Assay—The Cells were treated with peptides for 24 hours at different peptide concentrations. The 3-(4,5-dimethylthiazol-2-yl)-5-(3-carboxymethoxyphenyl)-2-(4-sulfophenyl)-2H-tetrazolium compound from Promega Viability kit (Madison, Ill.) was added, and the cells were incubated at 37° C. for 1-2 hours. The optical density on 96-plate was analyzed with a microplate reader at 490 nm to determine cell viability. In addition, cells were stained with trypan blue after 24 hours of treatment with Y15 and the percent of cells that stained positive were determined with a hemacytometer. Cell adhesion assay—The poly-L-Lysine or Collagen (5 μg/ml) coated 96-well plates were blocked with the blocking buffer (medium with 0.5% BSA) for 1 hour at 37 C. The cells were pre-treated with drugs for 3 hours and plated for adhesion at 4×10^5 cells. Cells were incubated at 37 C for 1 hour, fixed in 3.7% formaldehyde, washed in 0.1% BSA in PBS and stained with crystal violet (5 mg/ml in 2% ethanol) for 10 minutes. Then 2% SDS was added to the dried plated and OD at 590 nm was measured for detecting cell adhesion. Western Blotting—Cells or homogenized tumor samples were washed twice with cold 1×PBS and lysed on ice for 30 minutes in a buffer containing: 50 mM Tris-HCl (pH 7.5), 150 mM NaCl, 1% Triton-X, 0.5% NaDOC, 0.1% SDS, 5 mM EDTA, 50 mM NaF, 1 mM NaVO3, 10% glycerol and protease inhibitors: 10 μg/ml leupeptin, 10 μg/ml PMSF and 1 μg/ml aprotinin. The lysates were cleared by centrifugation at 10,000 rpm for 30 minutes at 4° C. Protein concentrations were determined using a Bio-Rad Kit. The boiled samples were loaded on Ready SDS-10% PAGE gels (Bio Rad, Inc) and used for Western blot analysis with the protein-specific antibody. Immunoblots were developed with chemiluminescence Renaissance reagent (NEN Life Science Products, Inc). Immunoprecipitation. Immunoprecipitation was performed according to the standard protocol. In brief, the pre-cleared lysates with equal amount of protein were incubated with 1 μg of primary antibody and 30 μl A/G agarose beads overnight at 4° C. The precipitates were washed with lysis buffer three times and re-suspended in 2× Laemmli buffer. The boiled samples were used for Western blotting, as described above. Detachment Assay—Cells were plated with and without inhibitors for 24 hours, and detached and attached cells were counted in a hemocytometer. We calculated the percent of detachment by dividing the number of detached cells by the total number of cells. The percent of detached cells was calculated in three independent experiments. Apoptosis Assay. […] The percent of apoptotic cells was calculated as a ratio of apoptotic detached cells divided by the total number of cells in three independent experiments in several fields with the fluorescent microscope. For each experiment 300 cells per treatment were counted. In vitro Kinase Assay—10 μCi of [γ-^32P]-ATP in a kinase buffer (20 mM HEPES, pH 7.4, 5 mM MgCl2, 5 mM MnCl2, 0.1 mM Na3VO4 with 0.1 μg of purified FAK protein were incubated in a kinase buffer with 10 μCi of [γ-^32P]-ATP. The kinase reaction was performed for 5 minutes at room temperature and stopped by addition of 2× Laemmli buffer. Proteins were separated on a Ready SDS-10% PAGE gel, and the phosphorylated enolase was visualized by autoradiography. KinaseProfiler screening—Kinase specificity screening was performed with KinaseProfiler™ Service (Millipore) available on http://www.millipore.com/drugdiscovery/dd3/KinaseProfiler. […]

The next experiment deals with glioma and ovarian tumor. As to conditions: cited from earlier work.
In another experiment the test system is Panc-1 cells. Put plainly: Apoptosis assay (Hoechst staining), Panc-1. Type of experiment: cell-based, human. Particulars: 48 hours. On the procedure:
(§1) Cell Viability Assay—The Cells were treated with peptides for 24 hours at different peptide concentrations. The 3-(4,5-dimethylthiazol-2-yl)-5-(3-carboxymethoxyphenyl)-2-(4-sulfophenyl)-2H-tetrazolium compound from Promega Viability kit (Madison, Ill.) was added, and the cells were incubated at 37° C. for 1-2 hours. The optical density on 96-plate was analyzed with a microplate reader at 490 nm to determine cell viability. In addition, cells were stained with trypan blue after 24 hours of treatment with Y15 and the percent of cells that stained positive were determined with a hemacytometer. Cell adhesion assay—The poly-L-Lysine or Collagen (5 μg/ml) coated 96-well plates were blocked with the blocking buffer (medium with 0.5% BSA) for 1 hour at 37 C. The cells were pre-treated with drugs for 3 hours and plated for adhesion at 4×10^5 cells. Cells were incubated at 37 C for 1 hour, fixed in 3.7% formaldehyde, washed in 0.1% BSA in PBS and stained with crystal violet (5 mg/ml in 2% ethanol) for 10 minutes. Then 2% SDS was added to the dried plated and OD at 590 nm was measured for detecting cell adhesion. […] Protein concentrations were determined using a Bio-Rad Kit. The boiled samples were loaded on Ready SDS-10% PAGE gels (Bio Rad, Inc) and used for Western blot analysis with the protein-specific antibody. […] Detachment Assay—Cells were plated with and without inhibitors for 24 hours, and detached and attached cells were counted in a hemocytometer. We calculated the percent of detachment by dividing the number of detached cells by the total number of cells. The percent of detached cells was calculated in three independent experiments. […] The percent of apoptotic cells was calculated as a ratio of apoptotic detached cells divided by the total number of cells in three independent experiments in several fields with the fluorescent microscope. For each experiment 300 cells per treatment were counted. […]

The next experiment has as its target IGFR kinase (Homo sapiens, UniProt P08069). As to conditions: cited from earlier work.
The test system of experiment [2] is Y397 phosphorylation of FAK. Put plainly: Western blotting with Y397 FAK antibody, BT474 cells. Format: cell-based. Particulars: 100 μM. On the procedure:
Cell Viability Assay—The Cells were treated with peptides for 24 hours at different peptide concentrations. The 3-(4,5-dimethylthiazol-2-yl)-5-(3-carboxymethoxyphenyl)-2-(4-sulfophenyl)-2H-tetrazolium compound from Promega Viability kit (Madison, Ill.) was added, and the cells were incubated at 37° C. for 1-2 hours. The optical density on 96-plate was analyzed with a microplate reader at 490 nm to determine cell viability. In addition, cells were stained with trypan blue after 24 hours of treatment with Y15 and the percent of cells that stained positive were determined with a hemacytometer. Cell adhesion assay—The poly-L-Lysine or Collagen (5 μg/ml) coated 96-well plates were blocked with the blocking buffer (medium with 0.5% BSA) for 1 hour at 37 C. The cells were pre-treated with drugs for 3 hours and plated for adhesion at 4×10^5 cells. Cells were incubated at 37 C for 1 hour, fixed in 3.7% formaldehyde, washed in 0.1% BSA in PBS and stained with crystal violet (5 mg/ml in 2% ethanol) for 10 minutes. Then 2% SDS was added to the dried plated and OD at 590 nm was measured for detecting cell adhesion. Western Blotting—Cells or homogenized tumor samples were washed twice with cold 1×PBS and lysed on ice for 30 minutes in a buffer containing: 50 mM Tris-HCl (pH 7.5), 150 mM NaCl, 1% Triton-X, 0.5% NaDOC, 0.1% SDS, 5 mM EDTA, 50 mM NaF, 1 mM NaVO3, 10% glycerol and protease inhibitors: 10 μg/ml leupeptin, 10 μg/ml PMSF and 1 μg/ml aprotinin. The lysates were cleared by centrifugation at 10,000 rpm for 30 minutes at 4° C. Protein concentrations were determined using a Bio-Rad Kit. The boiled samples were loaded on Ready SDS-10% PAGE gels (Bio Rad, Inc) and used for Western blot analysis with the protein-specific antibody. Immunoblots were developed with chemiluminescence Renaissance reagent (NEN Life Science Products, Inc). Immunoprecipitation. Immunoprecipitation was performed according to the standard protocol. In brief, the pre-cleared lysates with equal amount of protein were incubated with 1 μg of primary antibody and 30 μl A/G agarose beads overnight at 4° C. The precipitates were washed with lysis buffer three times and re-suspended in 2× Laemmli buffer. The boiled samples were used for Western blotting, as described above. Detachment Assay—Cells were plated with and without inhibitors for 24 hours, and detached and attached cells were counted in a hemocytometer. We calculated the percent of detachment by dividing the number of detached cells by the total number of cells. The percent of detached cells was calculated in three independent experiments. Apoptosis Assay. Detached cells were collected and fixed in 3.7% formaldehyde in 1×PBS solution for the apoptosis assay. Detection of apoptosis was done with Hoechst 33342 staining. The percent of apoptotic cells was calculated as a ratio of apoptotic detached cells divided by the total number of cells in three independent experiments in several fields with the fluorescent microscope. For each experiment 300 cells per treatment were counted. In vitro Kinase Assay—10 μCi of [γ-^32P]-ATP in a kinase buffer (20 mM HEPES, pH 7.4, 5 mM MgCl2, 5 mM MnCl2, 0.1 mM Na3VO4 with 0.1 μg of purified FAK protein were incubated in a kinase buffer with 10 μCi of [γ-^32P]-ATP. The kinase reaction was performed for 5 minutes at room temperature and stopped by addition of 2× Laemmli buffer. Proteins were separated on a Ready SDS-10% PAGE gel, and the phosphorylated enolase was visualized by autoradiography. KinaseProfiler screening—Kinase specificity screening was performed with KinaseProfiler™ Service (Millipore) available on http://www.millipore.com/drugdiscovery/dd3/KinaseProfiler. The screening was performed with 1 μM Y15, 10 μM ATP and kinase substrates on 9 recombinant kinases according to Millipore protocol. Tumor Growth in Nude Mice—Female nude mice, 6 weeks old, were purchased from Harlan Laboratory. […]

For experiment [3], the system named is BT474 cells. The experiment is described as follows: Apoptosis assay (Hoechst staining), BT474. Format: cell-based. On the procedure: as §1, with “counted. In vitro Kinase Assay—10 μCi of [γ-^32P]-ATP in a kinase buffer (20 mM HEPES, pH 7.4, 5 mM MgCl2, 5 mM MnCl2, 0.1 mM Na3VO4 with 0.1 μg of purified FAK protein were incubated in a kinase buffer with 10 μCi of [γ-^32P]-ATP. The kinase reaction was performed for 5 minutes at room temperature and stopped by addition of 2× Laemmli buffer. Proteins were separated on a Ready SDS-10% PAGE gel, and the phosphorylated enolase was visualized by autoradiography. KinaseProfiler screening—Kinase specificity screening was performed with KinaseProfiler™ Service (Millipore) available on http://www.millipore.com/drugdiscovery/dd3/KinaseProfiler.” for “counted.”

For the next experiment, the target named is T1, FAK (Homo sapiens, UniProt Q05397).
T1 construct: made in house; host or cells: Baculovirus system
The experiment is described as follows: In vitro kinase assay with purified recombinant FAK. Type of experiment: biochemical. Particulars: positive control. On the procedure: (§2) Cell Viability Assay—The Cells were treated with peptides for 24 hours at different peptide concentrations. The 3-(4,5-dimethylthiazol-2-yl)-5-(3-carboxymethoxyphenyl)-2-(4-sulfophenyl)-2H-tetrazolium compound from Promega Viability kit (Madison, Ill.) was added, and the cells were incubated at 37° C. for 1-2 hours. The optical density on 96-plate was analyzed with a microplate reader at 490 nm to determine cell viability. In addition, cells were stained with trypan blue after 24 hours of treatment with Y15 and the percent of cells that stained positive were determined with a hemacytometer. […] Then 2% SDS was added to the dried plated and OD at 590 nm was measured for detecting cell adhesion. […] Protein concentrations were determined using a Bio-Rad Kit. The boiled samples were loaded on Ready SDS-10% PAGE gels (Bio Rad, Inc) and used for Western blot analysis with the protein-specific antibody. […] Detachment Assay—Cells were plated with and without inhibitors for 24 hours, and detached and attached cells were counted in a hemocytometer. We calculated the percent of detachment by dividing the number of detached cells by the total number of cells. The percent of detached cells was calculated in three independent experiments. […] For each experiment 300 cells per treatment were counted. […]

The subject of the next experiment is Panc-1 tumor cells. The experiment is described as follows: Panc-1 subcutaneous tumor growth in nude mice. Type of experiment: in vivo. Particulars: 30 mg/kg each, daily intraperitoneal. On the procedure:
as §2

The next experiment deals with caspase-3. The experiment is described as follows: Caspase-3 immunohistochemistry of Panc-1 tumors. Format: in vivo, mice. As to conditions: 30 mg/kg, no significant increase. On the procedure:
as §2

Sequence of IGFR kinase (P08069 31-1367): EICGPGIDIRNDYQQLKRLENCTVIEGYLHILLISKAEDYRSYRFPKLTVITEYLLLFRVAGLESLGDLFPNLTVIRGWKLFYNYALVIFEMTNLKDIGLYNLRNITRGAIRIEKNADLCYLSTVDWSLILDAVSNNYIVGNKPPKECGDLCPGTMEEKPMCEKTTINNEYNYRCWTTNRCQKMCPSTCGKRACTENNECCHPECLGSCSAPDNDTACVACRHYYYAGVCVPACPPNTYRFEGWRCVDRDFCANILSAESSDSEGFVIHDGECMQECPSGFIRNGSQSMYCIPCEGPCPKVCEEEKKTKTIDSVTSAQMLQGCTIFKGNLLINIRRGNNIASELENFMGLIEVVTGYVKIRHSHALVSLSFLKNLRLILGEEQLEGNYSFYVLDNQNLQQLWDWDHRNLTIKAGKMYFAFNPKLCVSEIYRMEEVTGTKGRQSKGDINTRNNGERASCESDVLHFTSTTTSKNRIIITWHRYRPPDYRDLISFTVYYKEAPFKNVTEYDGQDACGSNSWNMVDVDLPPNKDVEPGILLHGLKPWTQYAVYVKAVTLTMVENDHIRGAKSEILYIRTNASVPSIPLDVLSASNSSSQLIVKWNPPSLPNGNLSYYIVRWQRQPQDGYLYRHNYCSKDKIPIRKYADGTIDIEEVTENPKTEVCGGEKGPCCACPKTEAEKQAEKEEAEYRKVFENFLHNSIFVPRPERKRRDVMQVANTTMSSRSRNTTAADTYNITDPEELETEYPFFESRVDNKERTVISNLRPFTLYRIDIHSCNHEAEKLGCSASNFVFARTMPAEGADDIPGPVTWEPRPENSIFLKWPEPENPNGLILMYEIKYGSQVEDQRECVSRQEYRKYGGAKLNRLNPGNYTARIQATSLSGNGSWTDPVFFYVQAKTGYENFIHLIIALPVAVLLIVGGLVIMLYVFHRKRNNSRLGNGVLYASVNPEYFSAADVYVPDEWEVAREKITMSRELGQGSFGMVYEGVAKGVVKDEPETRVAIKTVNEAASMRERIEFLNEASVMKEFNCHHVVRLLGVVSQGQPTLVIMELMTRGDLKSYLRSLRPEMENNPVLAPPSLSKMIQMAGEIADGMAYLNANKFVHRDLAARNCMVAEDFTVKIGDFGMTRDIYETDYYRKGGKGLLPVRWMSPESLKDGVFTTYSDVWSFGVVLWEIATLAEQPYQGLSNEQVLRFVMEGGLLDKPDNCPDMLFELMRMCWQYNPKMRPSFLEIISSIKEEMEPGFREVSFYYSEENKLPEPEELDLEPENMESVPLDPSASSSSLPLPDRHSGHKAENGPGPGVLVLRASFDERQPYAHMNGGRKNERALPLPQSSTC
T1 sequence (Q05397 whole entry): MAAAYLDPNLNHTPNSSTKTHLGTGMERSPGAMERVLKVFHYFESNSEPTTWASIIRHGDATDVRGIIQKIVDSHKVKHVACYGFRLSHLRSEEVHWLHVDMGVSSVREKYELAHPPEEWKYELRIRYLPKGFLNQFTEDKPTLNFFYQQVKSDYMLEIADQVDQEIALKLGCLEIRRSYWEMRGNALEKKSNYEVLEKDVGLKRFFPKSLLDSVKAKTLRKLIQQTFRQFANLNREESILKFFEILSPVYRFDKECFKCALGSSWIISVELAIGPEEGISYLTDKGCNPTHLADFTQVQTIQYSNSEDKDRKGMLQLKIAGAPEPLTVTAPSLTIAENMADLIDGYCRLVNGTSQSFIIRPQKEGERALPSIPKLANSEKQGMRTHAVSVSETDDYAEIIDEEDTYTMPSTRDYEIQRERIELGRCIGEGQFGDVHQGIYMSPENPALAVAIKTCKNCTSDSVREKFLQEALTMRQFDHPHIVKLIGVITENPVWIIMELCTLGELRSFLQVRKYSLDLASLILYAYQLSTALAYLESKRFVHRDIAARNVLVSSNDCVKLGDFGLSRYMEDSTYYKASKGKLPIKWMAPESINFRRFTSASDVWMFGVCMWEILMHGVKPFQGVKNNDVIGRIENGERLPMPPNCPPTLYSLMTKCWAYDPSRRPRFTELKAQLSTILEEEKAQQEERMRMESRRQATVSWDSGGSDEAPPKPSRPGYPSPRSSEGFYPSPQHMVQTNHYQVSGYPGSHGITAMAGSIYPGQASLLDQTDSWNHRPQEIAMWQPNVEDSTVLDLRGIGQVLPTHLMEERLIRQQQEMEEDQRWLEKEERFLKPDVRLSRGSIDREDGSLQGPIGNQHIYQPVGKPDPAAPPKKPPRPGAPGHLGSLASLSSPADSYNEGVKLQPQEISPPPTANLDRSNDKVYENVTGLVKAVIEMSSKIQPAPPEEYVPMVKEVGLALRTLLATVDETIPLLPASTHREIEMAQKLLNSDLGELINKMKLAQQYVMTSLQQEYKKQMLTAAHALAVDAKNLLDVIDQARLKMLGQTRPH

Take `CS(=O)(=O)c1cccc(CNc2nc(Nc3ccc4c(c3)CCC(=O)N4)ncc2C(F)(F)F)c1` [PF-573,228]: the Y397-FAK phosphorylation entry with Y397-FAK phosphorylation is “effectively blocked Y397-FAK phosphorylation”. Besides, the “cell growth and survival in vitro” value in the experiment on cell growth and survival was “did not inhibit cell growth and survival in vitro”.

Regarding `CNC(=O)c1ccccc1Nc1nc(Nc2ccc(N3CCOCC3)cc2OC)ncc1Cl` [TAE226, reference compound], in the experiment with Y397-FAK phosphorylation, the Y397-FAK phosphorylation result is reported as “effectively blocked Y397-FAK phosphorylation”. Further, the values for the detachment with BT474 cells [1] (10 μM) and in the experiment with BT474 cells [1] (50 μM) were 30% and greater than 80%, respectively. The “tumor growth in ovarian tumor model” value with glioma and ovarian tumor (30 mg/kg, alone) is on record as “not so effective”. Moreover, the “tumor growth in vivo” value in the experiment on glioma and ovarian tumor is “inhibited glioma and ovarian tumor growth in vivo”. Also, in the experiment with Panc-1 cells, the “level of apoptosis compared to similar doses of Y15” value is “slightly higher level of apoptosis”. Also, the IGFR kinase inhibition result at IGFR kinase is “inhibited IGFR kinase”. Also, in experiment [2], the “total FAK level” value is “down-regulated total FAK”. Besides, the “Y397 phosphorylation of FAK” value in [2] (24 hours) was “completely blocked Y397 phosphorylation”. Moreover, the apoptosis in the experiment with BT474 cells [3] (10 μM) stood at 35%; with BT474 cells [3] (20 μM) it was 69%. The FAK autophosphorylation activity result on FAK is given as “directly blocked autophosphorylation activity of FAK”.

For the molecule `Nc1ccn([C@@H]2O[C@H](CO)[C@@H](O)C2(F)F)c(=O)n1` [gemcitabine, reference compound], the tumor growth result with Panc-1 tumor cells is recorded as “inhibited tumor growth”. Also, in the experiment with caspase-3, the “apoptotic cells in tumors (caspase-3 staining)” value came out at 2%.
